# Tests used:
# ShC tumors = experiment: Ki67 staining of shC MCF7 tumors xenografted in mice; format: in vivo; conditions: OCDO treatment
# Protocol: (§1) FIG. 7. Knock-down of 11βHSD2 decreases cell proliferation, invasion and survival in MCF7 cells as well as tumor growth and OCDO reverses these effects. shC or shHSD2 MCF7 cells were analyzed as followed: (A) The proliferation of sh-C or shHSD2 cells treated or not with OCDO 5 μM 24 h was measured using quantification of DNA BrDU incorporation as described in FIG. 2A. (B) The proliferation of sh-C or shHSD2 cells treated or not with increasing concentration of cortisone for 24 h was measured as in (A). (C) The invasiveness of sh-C or shHSD2 cells treated or not with OCDO 5 μM for 72 h was assayed using matrigel-coated filters. (D) the formation of colony by sh-C or shHSD2 cells treated or not with OCDO 1 μM was quantified as described in FIG. 6F. […] Animals were monitored for tumor growth twice a week. […] (F) Mean (±s.e.m) of Ki67 positive cell number determined from IHC staining of shC or shHSD2 MCF7 tumor sections from (E), n=8, *P<0.05 (Student's t-test) using HistoQuant, Pannoramic Viewer (3DHistech).
# Exponentially growing MCF7, ShMCF7, E0771, MDA-MB231, MDA-MB468 and TS/A cells were collected, washed twice in PBS and resuspended in PBS. […] Animals were examined daily, and body weights were measured twice per week. In all the experiments, the tumor volume was determined by direct measurement with a caliper and was calculated using the formula (width^2×length)/2. […]
# shHSD2 MCF7 cells [1] = experiment: Clonogenic assay of shHSD2 MCF7 cells; format: cell-based, human; conditions: OCDO 1 μM
# Protocol: as §1
# Cells, MCF7-sh11bHSD2 (5×10^3), MCF7-shC (5×10^3) or TSA (3×10^3) were seeded in duplicate in […] diameter dish. […] At day 10, colonies were fixed with 3.7% PFA, stained with an aqueous crystal violet solution (0.05%) and the number of colonies was counted.
# shHSD2 MCF7 cells [2] = experiment: Proliferation of shHSD2 MCF7 cells (BrDU); format: cell-based, human; conditions: sh11HSD2 MCF7 cells, 24 h; OCDO 5 μM; cortisone increasing concentrations
# Protocol: as §1
# MCF7 or HEK293T cells (5×10^6 cells) were transfected with 5 μg of the indicated plasmid using the NEON Transfection System and according to the manufacturer's recommendations. […] Several clones were analyzed by immunoblot analysis and real time RT-qPCR for the knock down of the expression of the protein of interest. […]
compound,measurement,setting,value
"CC(C)CCC[C@@H](C)[C@H]1CC[C@H]2[C@@H]3CC(=O)[C@@]4(O)C[C@@H](O)CC[C@]4(C)[C@H]3CC[C@]12C [OCDO, 6-oxo-cholestan-3β,5α-diol]",cell proliferation by KI67 staining of tumors,ShC tumors,increased
same,effect on the inhibition of cell survival (colony formation) mediated by 11βHSD2 knock-down,shHSD2 MCF7 cells [1],reversed the inhibition
same,effect on the inhibition of cell proliferation induced by 11βHSD2 knock-down,shHSD2 MCF7 cells [2],able to reverse the inhibition of cell proliferation

# — patent US20170234881A1, “METHODS OF DIAGNOSING AND TREATING CANCER” (INSERM ( INSTITUT NATIONAL DE LA SANTÉ ET DE LA RECHERCHE …, priority 2014, published 2017)
